Measurements taken from patent US20030096379A1, “Method for producing tryptamine derivatives” (priority 2001, published 2003).

Key:
[1] = Tryptophanase (tryptophan lyase) activity of the enzyme preparation; format: biochemical, E. coli
Protocol: Tryptophan synthase activity was assayed by monitoring the increase in absorbance at 290 nm of a mixture containing serine, indole and PLP (Higgins, W., et al., Biochemistry, 1979, 18, 4827). TnA-catalyzed tryptophan synthesis was also measured by the 290 nm assay, while the tryptophan lyase reaction rate was measured by monitoring the reduction in NADH in reaction mixtures containing L-tryptophan and lactate dehydrogenase, indicating the amount of pyruvate released. Tryptophan decarboxylase was assayed colorimetrically by monitoring the sabsorbance at 580 nm produced by serotonin (AAADs) or tryptamine (TDCs) following treatment of reaction aliquots with Ehrlich's reagent (4-N,N-(dimethyl)aminobenzaldehyde in ethanolic HCl; Nakazawa, H.; Kumagi, H.; Yamada, H. Biochem Biophys. Res. Commun., 1974, 61, 75-82). Serotonin could be detected with approximately 5-fold higher sensitivity by this method as compared with tryptamine. The Ehrlich reagent assay using a microtiter plate format for simultaneous analysis of multiple enzyme samples may also be used. HPLC analysis was performed on acid-quenched reaction aliquots by using a base-deactivated C8 reversed-phase support (Shandon Hypersil BD8). HPLC analysis of acid-quenched aliquots permitted calculation of a rate ratio of 4.5 to 1 for pkAAAD-catalyzed DOPA decarboxylation relative to that of L-5-hydroxytryptophan, in good agreement with the accepted ratio of approximately 5:1. (See Sourkes, T. L. Methods Enzymol., 1987, 142, 170-178, which is incorporated herein by reference.)
Activity is expressed as μmol product formed per minute, TrpBA activity is reported for the reaction: indole+serine−>tryptophan at room temperature as described in the next section. Tryptophanase is reported for the reaction: tryptophan−>indole+pyruvate+NH4^+ at room temperature. The rate of tryptophan synthesis for TrpBA under our assay conditions is approximately 3-fold higher at 37° C.

[2] = pH-rate profiles for tryptophan-metabolizing enzymes; format: biochemical; conditions: between pH 7.5 and 9.5, L-serine and indole
Text: Both AAADs TDC1 and TDC2 were active over the entire optimum range shown by TrpBA. These broad activity ranges make it clear that the coupled enzyme process is not limited by pH.

[3] = molecular target: T1, E. coli DH5α tryptophan synthase (TrpBA) (Escherichia coli, UniProt P0A879); format: biochemical; set-up: key: +: a clear ninhydrin-positive spot at the Rf of standard tryptophan derivatives after 16-65 h; (+): a weak spot in the product region; −: no product observed; NR: experiment not run; conditions: indole derivative + L-serine + PLP, 37° C., 16-65 h, ninhydrin
T1 construct: made in house; host or cells: E. coli LMG194 (pBAD) or BL-21 (pET)
Protocol: (§1) A mixture containing 2 μmole of the indole derivative, 0.05 μmole of PLP and 50 μmol of L-serine in 40 mM KPi buffer in 8% v/v ethanol water, pH 7.5, was warmed to 37° C., then enzyme solution was added to give a final volume of 1 mL. Aliquots (100 μL) were quenched at intervals of 2, 6, and 24 hours or more in microcentrifuge capsules containing 25 μL of 6 M HCl. The quenched samples were evaporated in a Savant Speed-vac. The residues were resuspended in methanol/water (1:1, 50 μL) and analyzed by TLC on Silica gel GF254 plates alongside tryptophan and tryptamine standards, eluting with CH2Cl2/EtOH/H2O/HOAc 77:20:2:1. Products were visualized first by using short-wave UV light, then with ninhydrin spray reagent (1/1/98 w/v/v ninhydrin/HOAc/EtOH) followed by heating.
(§2) Substituted indoles were incubated with L-serine, PLP and enzyme (TrpBA or TnA) prior to TLC analysis as generally described in Example 6. Serine, which can be used instead of pyruvate and ammonia for tryptophan synthesis with TnA, was employed as the 3-carbon acid because pyruvate tended to obscure the tryptophan product spots when plates were visualized with ninhydrin. TnA-catalyzed formation of tryptophan was also faster when serine was the 3-carbon donor. Reaction rates for several substrates were also estimated by HPLC.
(§3) In Table 4, “+” indicates a clear ninhydrin-positive spot at the Rf of standard tryptophan derivatives after 16-65 h; “(+)” indicates a weak spot in the product region; “−” means no product observed, “NR” means experiment not run. ESMS=electrospray mass spectrometry. Unless otherwise indicated, the mass value given represents the singly-protonated molecular ion (M+1).

tryptophanase (TnA) = molecular target: T2, tryptophanase (TnA) (Escherichia coli, UniProt P0A853); format: biochemical, E. coli; set-up: key: +: a clear ninhydrin-positive spot at the Rf of standard tryptophan derivatives after 16-65 h; (+): a weak spot in the product region; −: no product observed; NR: experiment not run; conditions: indole derivative + L-serine + PLP, 37° C., 16-65 h, ninhydrin
T2 construct: made in house; host or cells: E. coli LMG194 (pBAD) or BL-21 (pET)
Protocol: as §1, §2, §3

TrpBA = molecular target: T3, TrpBA (Escherichia coli, UniProt P0A879); assay: Relative rates of tryptophan derivative synthesis by HPLC, TrpBA; format: biochemical, E. coli; set-up: key: **: rate too slow to quantitate; conditions: initial rate estimated by HPLC, indole = 100%
T3 construct: made in house; host or cells: E. coli LMG194 (pBAD) or BL-21 (pET)
Protocol: Reaction mixtures were prepared as in Example 6 and were incubated at 37° C. Aliquots (100 μL) were removed and quenched by addition of to 300 μL of 0.5 M sodium citrate, pH 3.0 in 10% v/v acetonitrile/water in 2 ml microcentrifuge tubes. Following centrifugation for 10 min at 13,000×g, the supernatants were passed through 0.45μ membrane filters prior to HPLC analysis of 20 μL of filtrate.
(§4) TnA reactions were run with L-serine as the 3-carbon substrate.

TnA = molecular target: T4, TnA (Escherichia coli, UniProt P0A853); assay: Relative rates of tryptophan derivative synthesis by HPLC, TnA; format: biochemical, E. coli; conditions: initial rate estimated by HPLC, indole = 100%, L-serine as the 3-carbon substrate
T4 construct: made in house; host or cells: E. coli LMG194 (pBAD) or BL-21 (pET)
Protocol: Aliquots (100 μL) were removed and quenched by addition of to 300 μL of 0.5 M sodium citrate, pH 3.0 in 10% v/v acetonitrile/water in 2 ml microcentrifuge tubes. Following centrifugation for 10 min at 13,000×g, the supernatants were passed through 0.45μ membrane filters prior to HPLC analysis of 20 μL of filtrate.
as §4

TrpBA and TDC1 = assay: Coupled enzyme synthesis monitored by HPLC; format: biochemical; conditions: L-serine, PLP, pH 8.5 phosphate buffer, 37° C.
Protocol: To a solution containing L-serine (25 μmol), pyridoxal phosphate (0.05 μmol) and TrpBA (0.02 to 1.5 units, depending on the substrate), TDC1 (0.2 mL 0.6 units) and KPi buffer (0.05 mmol, pH 7.5) in a volume of 0.8 mL were added […] of 5 mM indole derivative in 20% v/v ethanol/water. The mixture was incubated at 37° C. and aliquots were quenched and analyzed as described for Example 8. In cases where tryptamine and/or tryptophan standards were not available, peaks were collected for mass spectral analysis. Electrospray mass spectral analyses were performed.
Mixtures containing indole, L-serine, PLP and TDC1 were incubated in pH 8.5 phosphate buffer, analyzing aliquots by HPLC, as described in Example 12.
The procedure used in Example 24 was carried out by substituting indole with 2-methylindole, 4-hydroxymethylindole, 5-methoxy-, 5-hydroxymethyl-, 5-methoxycarbonyl, and 5,6-dimethoxyindole.

T2 sequence (P0A853 whole entry): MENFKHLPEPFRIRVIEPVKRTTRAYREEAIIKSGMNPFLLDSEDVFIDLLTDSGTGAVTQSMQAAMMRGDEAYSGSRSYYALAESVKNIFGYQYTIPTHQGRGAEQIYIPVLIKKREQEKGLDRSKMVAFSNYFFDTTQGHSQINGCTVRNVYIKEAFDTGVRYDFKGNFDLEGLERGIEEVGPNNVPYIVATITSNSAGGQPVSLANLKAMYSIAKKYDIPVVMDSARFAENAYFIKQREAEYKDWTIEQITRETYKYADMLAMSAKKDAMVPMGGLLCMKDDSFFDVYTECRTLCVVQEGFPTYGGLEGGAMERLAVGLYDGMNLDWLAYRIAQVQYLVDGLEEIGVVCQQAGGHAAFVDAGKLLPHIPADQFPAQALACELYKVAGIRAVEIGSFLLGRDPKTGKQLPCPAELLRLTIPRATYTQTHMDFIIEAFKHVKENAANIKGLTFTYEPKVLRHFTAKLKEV
T4 sequence (P0A853 whole entry): as above
T3 sequence (P0A879 whole entry): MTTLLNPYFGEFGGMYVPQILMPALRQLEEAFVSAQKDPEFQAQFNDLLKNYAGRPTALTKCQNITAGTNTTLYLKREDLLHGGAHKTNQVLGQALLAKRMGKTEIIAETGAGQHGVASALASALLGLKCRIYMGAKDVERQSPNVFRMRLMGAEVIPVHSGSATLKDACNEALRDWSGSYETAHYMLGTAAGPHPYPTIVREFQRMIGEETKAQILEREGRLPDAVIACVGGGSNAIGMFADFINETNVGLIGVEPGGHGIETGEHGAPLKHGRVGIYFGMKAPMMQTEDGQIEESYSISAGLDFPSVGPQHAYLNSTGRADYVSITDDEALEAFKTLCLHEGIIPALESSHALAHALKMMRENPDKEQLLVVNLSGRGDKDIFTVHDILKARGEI
T3 sequence (P0A877 whole entry, further chain): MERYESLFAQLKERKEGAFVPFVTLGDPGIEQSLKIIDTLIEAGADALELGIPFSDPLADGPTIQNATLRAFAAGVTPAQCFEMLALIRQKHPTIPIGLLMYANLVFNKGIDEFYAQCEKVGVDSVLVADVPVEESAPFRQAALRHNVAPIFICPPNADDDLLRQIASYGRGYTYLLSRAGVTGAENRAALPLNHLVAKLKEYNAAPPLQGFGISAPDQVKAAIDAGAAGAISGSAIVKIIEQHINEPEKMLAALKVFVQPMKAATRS
T1 sequence (P0A879 whole entry): as the sequence (P0A879 whole entry) above
T1 sequence (P0A877 whole entry, further chain): as the sequence (P0A877 whole entry, further chain) above

| Molecule | Crude specific activity ([1]; Table 3, TnA) [units/mg] | Crude spec activity ([1]; TnA, tryptophan->indole+pyruvate+NH4+, room temperature) | Purified specific activity ([1]; TnA, tryptophan->indole+pyruvate+NH4+, room temperature, after DEAE cellulose) [Units/mg] | percent of the maximum rate [2] [%] | TrpBA (tryptophan product spot, TLC analysis) [3] | TnA (tryptophan product spot, TLC analysis) (tryptophanase (TnA)) | Relative rate (TrpBA) (TrpBA; L-serine) [%] | Relative Rate (TnA) (TnA) [%] | formation of tryptophan derivative and tryptamine (HPLC peaks) (TrpBA and TDC1) | Relative rate (TrpBA) (TrpBA) |
| --- | --- | --- | --- | --- | --- | --- | --- | --- | --- | --- |
| TnA: E. coli tryptophanase, E.C. 4.1.99.1, cloned and expressed in E. coli | 0.8 | 0.8 | 2.0 | ≥ 84 |  |  |  |  |  |  |
| c1cc2cc3c(cc2[nH]1)OCO3 [5,6-methylenedioxy-] |  |  |  |  | − | + | 0.018 | 1.0 |  |  |
| c1ccc2[nH]ccc2c1 [indole, reference compound] |  |  |  |  | + | + | 100 | 100 | clearly observable |  |
| OCc1ccc2[nH]ccc2c1 [5-hydroxymethyl-, indole-5-methanol] |  |  |  |  | + | + | 0.03 | 1.2 | a second peak representing formation of tryptamine |  |
| COc1cc2cc[nH]c2cc1OC [5,6-dimethoxy, 5,6-dimethoxyindole] |  |  |  |  | − | (+) |  | 2.1 | a second peak representing formation of tryptamine | ** |
